# Measurements from patent publication US20190211317A1, “PEPTIDES AND NANOPARTICLES FOR INTRACELLULAR DELIVERY OF GENOME-EDITING MOLECULES” (Aadigen, LLC, priority 2016, published 2019).
# Values joined by “and” are separate entries in the source; they are usually repeats but may differ in a detail not shown here. Equal values may be shown once.
# Legend:
# [1] = tested on: endogenous EMX1 gene in U2OS, JURKAT and K562 cells; assay: EMX1 gene editing from CPP delivery of CAS9/gRNA (T7E1 assay); assay type: cell-based, human
# Protocol: RNAiMAX delivery was used as a positive control as it was previously reported to show better results than Lipofectamine 2000 (Zuris et al., 2015, supra). […] Cells were returned to the incubator for 72 hours.
# [2] = tested on: endogenous EMX1 and exogenous EGFP reporter genes in GFP-U2OS, EGFP-JURKAT cells; assay: Delivery of multiple RGEN/gRNA complexes: EMX1 and EGFP editing; assay type: cell-based, human
# Protocol: RNAiMAX delivery was used as positive control. Cells were treated as described previously and CAS9-induced NHEJ analyzed 72 hr after transfection. […] The deletion (indel) frequency in the EMX1 gene was quantified using the T7E1 assay and loss of EGFP expression was monitored by flow cytometry. Data for on-target mutations induced by RGEN/gRNA are reported as an average of 3 separate experiments.
# [3] = Particle size, polydispersity and zeta potential with different cargoes (Zetasizer NANO ZS P); assay type: physicochemical; conditions: 20:1
# Protocol: The CPP/CAS9-protein, CPP/CAS9-protein/sgRNA, CPP/CAS9-mRNA, CPP/CAS-mRNA/sgRNA particles were characterized; the mean size, polydispersity, and zeta potential were measured with a Zetasizer NANO ZS P apparatus (Malvern Ltd).
# The mean size and the polydispersity of the CCP/cargo complexes were determined at 25° C. for 5 min per measurement and zeta potential was measured with a Zetasizer NANO ZS P apparatus (Malvern Ltd).
structure (smiles),measurement,setting,value
CC(C)C[C@H](NC(=O)[C@H](CCCNC(=N)N)NC(=O)[C@H](Cc1c[nH]c2ccccc12)NC(=O)[C@H](CCCNC(=N)N)NC(=O)[C@H](Cc1c[nH]c2ccccc12)NC(=O)CNC(=O)[C@H](C)NC(=O)[C@H](CO)NC(=O)[C@H](CCCNC(=N)N)NC(=O)[C@H](Cc1c[nH]c2ccccc12)NC(=O)[C@H](CCCCN)NC(=O)CCN)C(=O)N[C@@H](Cc1c[nH]c2ccccc12)C(=O)N[C@@H](CCCNC(=N)N)C(=O)N[C@H](C(=O)N[C@@H](CCCNC(=N)N)C(=O)N[C@@H](CO)C(=O)N[C@@H](Cc1c[nH]c2ccccc12)C(=O)N[C@@H](CO)C(=O)N[C@@H](CCCNC(=N)N)C(=O)O)C(C)C [ADGN-100a],Mean indel Frequency ± S.E.M,"[1]; JURICAT, CAS9/sgRNA 25 nM",65% and 65 ± 5%
same,Mean indel Frequency ± S.E.M,"[1]; JURKAT, CAS9/sgRNA 50 nM",68 ± 6%
same,Mean indel Frequency ± S.E.M,"[1]; K562, CAS9/sgRNA 25 nM",71% and 71 ± 8%
same,Mean indel Frequency ± S.E.M,"[1]; K562, CAS9/sgRNA 50 nM",74 ± 4%
same,Mean indel Frequency ± S.E.M,"[1]; U2OS, CAS9/sgRNA 25 nM, 20:1",67% and 67 ± 5%
same,Mean indel Frequency ± S.E.M,"[1]; U2OS, CAS9/sgRNA 50 nM",72 ± 8%
same,Mean indel Frequency ± S.E.M,"[2]; JURKAT, EGFP",78 ± 4%
same,Mean indel Frequency ± S.E.M,"[2]; JURKAT, EMX1",76 ± 7%
same,Mean indel Frequency ± S.E.M,"[2]; U2OS, EGFP, 25 nM each complex",77 ± 6%
same,Mean indel Frequency ± S.E.M,"[2]; U2OS, EMX1",72 ± 8%
same,formation of stable nanoparticles,[3]; with CAS9-mRNA and CAS9-mRNA/gRNA complex,able to form stable nanoparticles
same,Mean diameter,[3]; with CAS9-mRNA and CAS9-mRNA/gRNA,about 75 nm
same,formation of stable nanoparticles,[3]; with CAS9-protein and CAS9-protein/gRNA complex,able to form stable nanoparticles
same,Mean diameter,[3]; with CAS9-protein and CAS9-protein/gRNA,about 100 nm
